These results are taken from ChEMBL document CHEMBL1142759, “Synthesis of some diguanidino 1-methyl-2,5-diaryl-1H-pyrroles as antifungal agents” (2005).

SMILES strings stand for the structures. In brackets after ≈: the same amount, converted by molar mass. Some results are limits rather than exact numbers.

Assay [1] concerns Candida. In words: Minimum inhibitory concentration against Candida krusei ATCC 6528 evaluated by in vitro agar diffusion and micro-broth dilution assay. In kind it is functional, Candida kruisii. In general terms: Agar diffusion results depend on both activity and mobility in agar.
Another assay deals with Candida tropicalis. In words: Minimum inhibitory concentration against Candida tropicalis ATCC750 evaluated by in vitro agar diffusion and microbroth dilution assay. The format is functional.
Assay [2] concerns Candida. In words: Minimum inhibitory concentration against Candida krusei 1766-1 evaluated by in vitro agar diffusion and micro-broth dilution assay. In kind it is functional, Candida kruisii.
In another assay the test system is Aspergillus fumigatus. In words: Minimum inhibitory concentration against Aspergillus fumigatus LSI-11 evaluated by in vitro agar diffusion and microbroth dilution assay. In kind it is functional.
For another assay, the system named is Nakaseomyces glabratus. In words: Minimum inhibitory concentration against Candida glabrata ATCC 90030 evaluated by in vitro agar diffusion and microbroth dilution assay. In kind it is functional.
For assay [3], the system named is Candida albicans. In words: Minimum inhibitory concentration against Candida albicans A261 evaluated by in vitro agar diffusion and micro-broth dilution assay. The format is functional.
Assay [4] concerns Candida albicans. In words: Minimum inhibitory concentration against Candida albicans V-01-191 evaluated by in vitro agar diffusion and microbroth dilution assay. In kind it is functional.
The next assay concerns Candida parapsilosis. In words: Minimum inhibitory concentration against Candida parapsilosis ATCC 22019 evaluated by in vitro agar diffusion and micro-broth dilution assay. Conditions: Lodderomyces parapsilosis. In kind it is functional.

What is called MIC is the lowest concentration found to suppress growth. The low end stands for greater potency, the high end for weaker potency. `CCC(C)n1ncn(-c2ccc(N3CCN(c4ccc(OC[C@H]5CO[C@](Cn6cncn6)(c6ccc(Cl)cc6Cl)O5)cc4)CC3)cc2)c1=O` (some centres undefined) [ITRACONAZOLE]: the MIC with Candida [1] was 0.25 µg/mL (≈ 0.354 µM); against Candida tropicalis, 0.12 µg/mL (≈ 0.17 µM); in the assay on Candida [2] it was less than 0.03 µg/mL; with Aspergillus fumigatus, 0.12 µg/mL (≈ 0.17 µM); in the assay with Nakaseomyces glabratus it was 0.25 µg/mL (≈ 0.354 µM); against Candida albicans [3], less than 0.03 µg/mL. Also, the MIC in the assay with Candida albicans [4] and with Candida parapsilosis was 0.25 µg/mL (≈ 0.354 µM) throughout.

With `COc1cc(NC(=N)N)ccc1-c1ccc(-c2ccc(NC(=N)N)cc2OC)n1C`, the MIC with Candida [1], against Candida tropicalis, in the assay with Candida [2], in the assay on Aspergillus fumigatus, with Nakaseomyces glabratus and against Candida albicans [3] was 16 µg/mL (≈ 39.3 µM) in each case. Also, the MIC in the assay with Candida albicans [4] and with Candida parapsilosis was 16 µg/mL (≈ 39.3 µM) in each case.

As for `Cn1c(-c2ccc(NC(=N)N)cc2)ccc1-c1ccc(NC(=N)N)cc1`, the MIC with Candida [1], with Candida tropicalis, in the assay with Candida [2], in the assay with Aspergillus fumigatus, in the assay with Nakaseomyces glabratus and with Candida albicans [3] was more than 16 µg/mL each time. The MIC against Candida albicans [4] and in the assay on Candida parapsilosis was more than 16 µg/mL each time.

Consider `OC(Cn1cncn1)(Cn1cncn1)c1ccc(F)cc1F` [FLUCONAZOLE], for which the MIC against Candida [1] is more than 8 µg/mL; against Candida tropicalis, 8 µg/mL (≈ 26.1 µM); with Candida [2], 32 µg/mL (≈ 104 µM); against Aspergillus fumigatus, not below 64 µg/mL; against Nakaseomyces glabratus it was more than 8 µg/mL; in the assay on Candida albicans [3], 0.25 µg/mL (≈ 0.816 µM). Further, the results for the MIC against Candida albicans [4] and in the assay with Candida parapsilosis were 6 µg/mL (≈ 19.6 µM) and 8 µg/mL (≈ 26.1 µM), respectively.

On to `Cn1c(-c2ccc(NC(=N)N)cc2Cl)ccc1-c1ccc(NC(=N)N)cc1Cl`, for which the MIC against Candida [1] was 16 µg/mL (≈ 38.4 µM); in the assay with Candida tropicalis, 4 µg/mL (≈ 9.61 µM); in the assay on Candida [2], 16 µg/mL (≈ 38.4 µM); with Aspergillus fumigatus, more than 16 µg/mL; against Nakaseomyces glabratus it was 16 µg/mL (≈ 38.4 µM); in the assay on Candida albicans [3] it was 8 µg/mL (≈ 19.2 µM). For the same molecule, the MIC against Candida albicans [4] stood at 8 µg/mL (≈ 19.2 µM); against Candida parapsilosis it was 16 µg/mL (≈ 38.4 µM).

On to `Cn1c(-c2cc(F)c(NC(=N)N)cc2F)ccc1-c1cc(F)c(NC(=N)N)cc1F`, for which the MIC against Candida [1], with Candida tropicalis, in the assay on Candida [2], with Aspergillus fumigatus, with Nakaseomyces glabratus and in the assay on Candida albicans [3] was more than 16 µg/mL each time. For the same molecule, the MIC in the assay on Candida albicans [4] and against Candida parapsilosis was more than 16 µg/mL throughout.

With `Cn1c(-c2ccc(N=C(N)N)c(C(F)(F)F)c2)ccc1-c1ccc(N=C(N)N)c(C(F)(F)F)c1`, the MIC in the assay on Candida [1] worked out at 16 µg/mL (≈ 33.1 µM); in the assay with Candida tropicalis, 4 µg/mL (≈ 8.27 µM); against Candida [2], 16 µg/mL (≈ 33.1 µM); against Aspergillus fumigatus it was 16 µg/mL (≈ 33.1 µM); in the assay with Nakaseomyces glabratus, 16 µg/mL (≈ 33.1 µM); in the assay with Candida albicans [3] it was 16 µg/mL (≈ 33.1 µM). Further, the minimal inhibitory concentration (MIC) in the assay with Candida albicans [4] and against Candida parapsilosis was 16 µg/mL (≈ 33.1 µM) each time.

For `Cc1cc(NC(=N)N)ccc1-c1ccc(-c2ccc(NC(=N)N)cc2C)n1C`, the MIC against Candida [1] was 4 µg/mL (≈ 10.7 µM); in the assay on Candida tropicalis, 1 µg/mL (≈ 2.66 µM); in the assay on Candida [2], 8 µg/mL (≈ 21.3 µM); against Aspergillus fumigatus, 16 µg/mL (≈ 42.6 µM); in the assay on Nakaseomyces glabratus it was 2 µg/mL (≈ 5.33 µM); in the assay on Candida albicans [3], 2 µg/mL (≈ 5.33 µM). Moreover, the MIC against Candida albicans [4] and against Candida parapsilosis was 2 µg/mL (≈ 5.33 µM) each time.
